Results published in PubChem BioAssay AID1963444 (Molecular Pharmacology Branch, DTP, NCI, 2024).
pIC50: −log10 of the molar value.

System: HSSY-II complex spheroid growth, percent test/control
Assay: Anticancer human tumor HSSY-II cell line growth inhibition [Asc];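 further: spheroids exposed to drug for 7 days before reading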
Conditions: for pIC50: curve of first compound; for viability, T/C: stronger effect = lower value; active means viability on the fitted dose curve at most 10% of control; inactive means the rest
In short: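 Concentration series start at each agent's clinical Cmax, or at 10 microM when none is established, and drop in half-log steps; agents are applied alone or together to complex spheroids built with HUVEC and hMSC.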

Cc1nc(N2CCC3(CC2)COC(C)C3N)c(CO)nc1Sc1ccnc(N)c1Cl (configuration not stated) + CCN1C(C(=O)NC23CCC(C(=O)O)(CC2)CC3)C(c2cccc(Cl)c2F)C2(C(=O)Nc3cc(Cl)ccc32)C12CCCCC2
> 8.02: pIC50 (second compound 0.3 µM) | pIC50 (second compound 0.949 µM) | pIC50 (second compound 3 µM)
inactive: viability, T/C (second compound 0.03 µM, first compound 0.00949 µM) 105% | viability, T/C (second compound 0.03 µM, first compound 0.03 µM) 97.6% | viability, T/C (second compound 0.03 µM, first compound 0.0949 µM) 100% | viability, T/C (second compound 0.03 µM, first compound 0.3 µM) 93.2% | viability, T/C (second compound 0.03 µM, first compound 0.949 µM) 88.8% | viability, T/C (second compound 0.03 µM, first compound 3 µM) 59.8% | viability, T/C (second compound 0.0949 µM, first compound 0.00949 µM) 64% | viability, T/C (second compound 0.0949 µM, first compound 0.03 µM) 59.3% | viability, T/C (second compound 0.0949 µM, first compound 0.0949 µM) 57.6% | viability, T/C (second compound 0.0949 µM, first compound 0.3 µM) 58.7% | viability, T/C (second compound 0.0949 µM, first compound 0.949 µM) 44.3% | viability, T/C (second compound 0.0949 µM, first compound 3 µM) 36.6% | viability, T/C (second compound 0.3 µM, first compound 0.00949 µM) 23.8% | viability, T/C (second compound 0.3 µM, first compound 0.03 µM) 22.2% | viability, T/C (second compound 0.3 µM, first compound 0.0949 µM) 23.4% | viability, T/C (second compound 0.3 µM, first compound 0.3 µM) 23.2% | viability, T/C (second compound 0.3 µM, first compound 0.949 µM) 14.6% | viability, T/C (second compound 0.3 µM, first compound 3 µM) 18.5%
< 5.52: pIC50 (second compound 0.03 µM)
active: viability, T/C (second compound 0.949 µM, first compound 0.00949 µM) 7.31% | viability, T/C (second compound 0.949 µM, first compound 0.03 µM) 6.01% | viability, T/C (second compound 0.949 µM, first compound 0.0949 µM) 4.66% | viability, T/C (second compound 0.949 µM, first compound 0.3 µM) 3.37% | viability, T/C (second compound 0.949 µM, first compound 0.949 µM) 2.01% | viability, T/C (second compound 0.949 µM, first compound 3 µM) 2.02% | viability, T/C (second compound 3 µM, first compound 0.00949 µM) 1.65% | viability, T/C (second compound 3 µM, first compound 0.03 µM) 1.25% | viability, T/C (second compound 3 µM, first compound 0.0949 µM) 0.81% | viability, T/C (second compound 3 µM, first compound 0.3 µM) 0.41% | viability, T/C (second compound 3 µM, first compound 0.949 µM) 0.35% | viability, T/C (second compound 3 µM, first compound 3 µM) 0.42%
6.21: pIC50 (second compound 0.0949 µM)

C#Cc1c(F)ccc2cc(O)cc(-c3ncc4c(N5CC6CCC(C5)N6)nc(OCC56CCCN5CC(F)C6)nc4c3F)c12 (configuration not stated) + CNC(C)C(=O)NC1CN(S(=O)(=O)c2cccc(S(=O)(=O)N3CCC4CCC(C(=O)NC(c5ccccc5)c5ccccc5)N4C(=O)C(NC(=O)C(C)NC)C3)c2)CCC2CCC(C(=O)NC(c3ccccc3)c3ccccc3)N2C1=O
inactive: viability, T/C (second compound 0.00316 µM, first compound 0.0316 µM) 97.9% | viability, T/C (second compound 0.00316 µM, first compound 0.1 µM) 92.2% | viability, T/C (second compound 0.00316 µM, first compound 0.316 µM) 92.2% | viability, T/C (second compound 0.00316 µM, first compound 1 µM) 109% | viability, T/C (second compound 0.00316 µM, first compound 3.16 µM) 96.7% | viability, T/C (second compound 0.00316 µM, first compound 10 µM) 62.2% | viability, T/C (second compound 0.01 µM, first compound 0.0316 µM) 100% | viability, T/C (second compound 0.01 µM, first compound 0.1 µM) 88% | viability, T/C (second compound 0.01 µM, first compound 0.316 µM) 94% | viability, T/C (second compound 0.01 µM, first compound 1 µM) 98.1% | viability, T/C (second compound 0.01 µM, first compound 3.16 µM) 88.8% | viability, T/C (second compound 0.01 µM, first compound 10 µM) 32% | viability, T/C (second compound 0.0316 µM, first compound 0.0316 µM) 100% | viability, T/C (second compound 0.0316 µM, first compound 0.1 µM) 96.3% | viability, T/C (second compound 0.0316 µM, first compound 0.316 µM) 95.2% | viability, T/C (second compound 0.0316 µM, first compound 1 µM) 94.3% | viability, T/C (second compound 0.0316 µM, first compound 3.16 µM) 94.2% | viability, T/C (second compound 0.0316 µM, first compound 10 µM) 45.4% | viability, T/C (second compound 0.1 µM, first compound 0.0316 µM) 100% | viability, T/C (second compound 0.1 µM, first compound 0.1 µM) 91.7% | viability, T/C (second compound 0.1 µM, first compound 0.316 µM) 93.6% | viability, T/C (second compound 0.1 µM, first compound 1 µM) 88.5% | viability, T/C (second compound 0.1 µM, first compound 3.16 µM) 85.1% | viability, T/C (second compound 0.1 µM, first compound 10 µM) 63% | viability, T/C (second compound 0.316 µM, first compound 0.0316 µM) 102% | viability, T/C (second compound 0.316 µM, first compound 0.1 µM) 93.9% | viability, T/C (second compound 0.316 µM, first compound 0.316 µM) 88.5% | viability, T/C (second compound 0.316 µM, first compound 1 µM) 91.2% | viability, T/C (second compound 0.316 µM, first compound 3.16 µM) 84.9% | viability, T/C (second compound 0.316 µM, first compound 10 µM) 48.1% | viability, T/C (second compound 1 µM, first compound 0.0316 µM) 91.9% | viability, T/C (second compound 1 µM, first compound 0.1 µM) 90.8% | viability, T/C (second compound 1 µM, first compound 0.316 µM) 96.2% | viability, T/C (second compound 1 µM, first compound 1 µM) 86.1% | viability, T/C (second compound 1 µM, first compound 3.16 µM) 86.6% | viability, T/C (second compound 1 µM, first compound 10 µM) 37.5%
5.02: pIC50 (second compound 0.316 µM)
5.16: pIC50 (second compound 0.01 µM)
5.13: pIC50 (second compound 1 µM)
< 5.00: pIC50 (second compound 0.00316 µM) | pIC50 (second compound 0.1 µM)
5.05: pIC50 (second compound 0.0316 µM)
